Data set [1] deals with CDC1551(hspX′:GFP) reporter. Kind of data set: microbe, parasite or virus in culture. The data set is classed as cell-based, Mycobacterium tuberculosis. The following applies: Mycobacterium tuberculosis, 6 days of treatment.
The next data set deals with Mtb. Kind of data set: microbe, parasite or virus in culture. In kind it is cell-based. The note with it: Mycobacterium tuberculosis; 6 days, optical density; unit given as M; read-out: growth inhibition EC50.
In data set [2] the test system is DosR regulon genes (dosR, hspX and tgs1). Kind of data set: NO and vitamin C sensitivity assays (RT-PCR). The data set is classed as cell-based, Mycobacterium tuberculosis. The following applies: for induction of dosR / induction of hspX / induction of tgs1: 2 h.
Data set [3] concerns Mtb Erdman. The note with it: 1 μM and 5 μM INH, ten days post INH treatment.
Data set [4] deals with Mtb Erdman. Kind of data set: microbe, parasite or virus in culture. The following applies: Mycobacterium tuberculosis, 240 h, read-out: viability, INH alone.
Setting [5] is: read-out: EC50 of inhibition of CDC1551(hspX′:GFP) reporter (dosR-dependent GFP) fluorescence.

Molecules are shown by their SMILES. pEC50: −log10 of the molar value. Read-outs that look alike come from different tables or passages of the source.

In general, pEC50 refers to −log10 of the EC50, conventionally taken in molar units. For orientation: viability means a per cent measure of how many cells are alive, often set against a control.

Take `CCCS(=O)(=O)N1CCN(Cc2ccc3c(c2)c2ccccc2n3CC)CC1` [HC105A, 9-ethyl-3-[(4-propylsulfonylpiperazin-1-yl)methyl]carbazole; oxalic acid]: the pEC50 in data set [1] (setting [5]) is 4.90; with Mtb it was under 4.10.

In the case of `O=C(Nc1ccno1)Nc1ccc(Cl)cc1Cl` [HC106A, 1-(2,4-dichlorophenyl)-3-(1,2-oxazol-5-yl)urea], the pEC50 was 5.16 in data set [1] (setting [5]) and under 4.10 in the data set on Mtb.

Regarding `O=C1O[C@H]([C@@H](O)CO)C(O)=C1O` [vitamin C, reference compound], in data set [2] (2 mM vitamin C), the “induction of dosR” value stood at 4 fold, the “induction of hspX” value amounted to 14 fold and the “induction of tgs1” value was 52 fold.

In the case of `C[C@H]1[C@@H](O)O[C@@H]2O[C@@]3(C)CC[C@H]4[C@H](C)CC[C@@H]1[C@@]24OO3` [DHA, dihydroartemisinin, reference compound], the “reduction of magnitude of induction of transcripts in response to DETA-NONOate vs DMSO treatment” value in data set [2] (80 μM pretreatment 24 h) is reported as about 2 fold.

With `NNC(=O)c1ccncc1` [INH, isoniazid, reference compound], in the data set on Mtb Erdman [3], the “viability, INH alone” value is about 100%. Besides, in the data set on Mtb Erdman [4], the viability at 25 µM is about 75%.

Take `[N]=O` [NO, reference compound]: in data set [2] (NO (50 μM DETA-NONOate)), the “induction of dosR” value is reported as 491 fold, the “induction of hspX” value was found to be 373 fold and the “induction of tgs1” value worked out at 47 fold.

`CN(C)CCCN1C(=O)c2cccc3c(Br)ccc(c23)C1=O` [HC104A, 6-bromo-2-[3-(dimethylamino)propyl]benzo[de]isoquinoline-1,3-dione]: the negative-log EC50 (pEC50) is 5.55 in data set [1] (unit given as M, read-out: EC50 of inhibition of dosR-dependent GFP fluorescence) and under 4.10 with Mtb.
